Assay results taken from PMC12428554, “Anti-HIV and Antimicrobial Activity of 7-Hydrazino-8-hydroxyquinoline-Based Aromatic Hydrazones” (International Journal of Molecular Sciences, 2025).
Where “and” joins values, the source holds several entries; their conditions need not be identical. Identical values can stand only once.

What was measured:
[1] = target: T1, recombinant HIV-1 Integrase (strand transfer) (Human immunodeficiency virus type 1 group M subtype B, UniProt P04585); assay: HIV integrase strand transfer inhibition; type: biochemical; settings: for IC50: 100 nM integrase, 37 °C, 2 h
T1 construct: The recombinant HIV-1 Integrase (In) was isolated from the Rosetta Escherichia coli producer strain; made in house; host or cells: Escherichia coli Rosetta
Procedure: The recombinant HIV-1 Integrase (In) was isolated from the Rosetta Escherichia coli producer strain and purified without the addition of a detergent as described previously. Radioactive ^32P label was introduced at the 5′-end of the oligonucleotide. Testing of the compounds was performed according to the previously published procedure. Briefly: 5 nM ^32P-labeled 21 mer DNA duplex (5′-[…]-3′ and 5′-[…]-3′) for 3′-processing reaction or 10 nM 19/21 mer DNA duplex (5′-[…]-3′ and 5′-[…]-3′) for strand transfer was incubated in 20 µL of the buffer (20 mM HEPES, pH 7.2, 7.5 mM MgCl2, 1 mM DTT) in the presence of 100 nM integrase and increasing concentrations of the inhibitor at 37 °C for 2 h. The reaction products were assayed by 20% polyacrylamide gel electrophoresis (PAGE) with 7 M urea. The result was visualized by radioautography on a Typhoon FLA 9500 PhosphorImager (GE Healthcare Technologies, Chicago, IL, USA). The counting of radioautograms was performed using QuantityOne 4.6.6 software (Bio-Rad, Hercules, CA, USA). Calculation of IC50 parameters was carried out by Prism 8.0.1 software (GraphPad Software, San-Diego, CA, USA).

MTT cytotoxicity assay = type: cell-based; settings: human, Huh-7.5 cells
Procedure: Huh7.5 cells were grown in the DMEM/F12 (2:1) medium supplemented with 10% FBS (BioSera, Cholet, France), 2 mM L-glutamine, 100 U/mL penicillin, and 100 µg/mL streptomycin in the presence of 5% CO2 at 37 °C. Cells were re-seeded every three days at a ratio of 1:3 or 1:5. Stock solutions were diluted in DMSO (BioReagent of molecular biology grade, Sigma, St. Louis, MO, USA), and the final DMSO concentration was 1%. After 24 h (30–40% monolayer), the solutions of the studied compounds diluted at different concentrations were introduced to the culture medium. After incubation at 37 °C in 5% CO2 for 48 h, a freshly prepared solution of thiazolyl blue tetrazolium bromide at a final concentration of 0.4 mg/mL was added to each well of the plate. Incubation was performed at +37 °C for 2 h. The medium containing unreacted MTT was removed via aspiration. The formed formazan dye was dissolved in 100 µL of isopropanol added to each well of the plate. The result of the analysis was evaluated using a Tecan Spark multimode microplate reader (Tecan Group Ltd., Männedorf, Switzerland) via absorbance at 544 nm.

Ku70–DNA complex = target: T2, Ku70–DNA complex (Homo sapiens, UniProt P12956); assay: EMSA of Ku70/Ku80–DNA complex formation; type: binding; settings: 12.8 nM Ku heterodimer, 4 nM labelled 40 mer DNA duplex, read-out: IC50, inhibition of Ku70–DNA complex formation
T2 construct: made in house; host or cells: Escherichia coli
T2 sequence (P12956 whole entry): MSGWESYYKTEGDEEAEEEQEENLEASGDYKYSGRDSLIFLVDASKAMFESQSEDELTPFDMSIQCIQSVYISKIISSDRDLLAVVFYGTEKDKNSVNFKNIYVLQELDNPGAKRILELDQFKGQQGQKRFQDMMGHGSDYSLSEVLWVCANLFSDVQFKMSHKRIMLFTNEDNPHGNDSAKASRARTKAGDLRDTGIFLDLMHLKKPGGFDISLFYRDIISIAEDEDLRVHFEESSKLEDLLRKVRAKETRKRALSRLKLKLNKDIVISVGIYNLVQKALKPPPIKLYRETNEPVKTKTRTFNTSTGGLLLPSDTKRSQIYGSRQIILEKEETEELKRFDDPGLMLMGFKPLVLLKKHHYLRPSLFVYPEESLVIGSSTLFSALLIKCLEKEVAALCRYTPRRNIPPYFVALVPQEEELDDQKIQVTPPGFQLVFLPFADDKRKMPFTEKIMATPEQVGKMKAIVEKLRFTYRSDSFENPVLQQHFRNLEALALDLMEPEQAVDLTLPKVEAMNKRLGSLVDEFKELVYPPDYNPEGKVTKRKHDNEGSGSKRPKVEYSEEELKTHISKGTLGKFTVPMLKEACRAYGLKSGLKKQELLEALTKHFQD
T2 sequence (P13010 whole entry partner): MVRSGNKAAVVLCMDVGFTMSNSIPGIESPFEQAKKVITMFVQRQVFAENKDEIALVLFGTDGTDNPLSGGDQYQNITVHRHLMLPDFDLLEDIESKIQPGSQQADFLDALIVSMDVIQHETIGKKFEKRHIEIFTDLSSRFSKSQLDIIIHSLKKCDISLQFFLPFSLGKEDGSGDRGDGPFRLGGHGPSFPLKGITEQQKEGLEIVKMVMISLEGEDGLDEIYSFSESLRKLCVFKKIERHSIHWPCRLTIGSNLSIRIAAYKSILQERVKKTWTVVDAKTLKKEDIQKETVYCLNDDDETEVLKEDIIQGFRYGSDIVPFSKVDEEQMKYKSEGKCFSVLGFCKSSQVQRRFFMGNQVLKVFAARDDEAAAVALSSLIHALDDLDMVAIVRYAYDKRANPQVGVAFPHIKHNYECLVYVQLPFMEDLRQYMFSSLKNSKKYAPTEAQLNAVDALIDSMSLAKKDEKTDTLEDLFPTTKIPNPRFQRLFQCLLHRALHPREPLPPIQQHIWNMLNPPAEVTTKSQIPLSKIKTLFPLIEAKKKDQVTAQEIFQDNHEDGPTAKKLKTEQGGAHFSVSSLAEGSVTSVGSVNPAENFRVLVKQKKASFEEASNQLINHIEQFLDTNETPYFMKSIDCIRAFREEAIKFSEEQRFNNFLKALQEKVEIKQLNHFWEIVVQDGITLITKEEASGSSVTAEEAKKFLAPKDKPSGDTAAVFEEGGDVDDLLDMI
Procedure: A bicistronic construct was used for the simultaneous expression of the Ku70 and Ku80 proteins in E. coli. Proteins were chromatographically purified with a 6His-tag at the N terminus of the Ku80 subunit. Recombinant Ku protein was produced in bacterial cell culture, purified, and its DNA-binding activity was characterized.
Isolation was performed using affinity chromatography on Ni^2+-NTA resin. The presence of Ku and impurities was monitored using SDS-PAGE and Western blot analysis. The testing of substances as potential inhibitors of the interaction of the Ku heterodimer with DNA was carried out using the gel inhibition assay.
The testing of substances as potential inhibitors of the interaction of the Ku heterodimer with DNA was carried out using the EMSA. […] The result was visualized by radioautography on a Typhoon FLA 9500 PhosphorImager (GE Healthcare Technologies, Chicago, IL, USA). The counting of radioautograms was performed using QuantityOne 4.6.6 software (Bio-Rad, Hercules, CA, USA). The calculation of IC50 parameters was carried out by Prism 8.0.1 software (GraphPad Software, San-Diego, CA, USA).

[2] = Neutral red (NR) cytotoxicity assay; type: cell-based; settings: human, Huh-7.5 cells
Procedure: Huh7.5 cells were grown in the DMEM/F12 (2:1) medium supplemented with 10% FBS (BioSera, Cholet, France), 2 mM L-glutamine, 100 U/mL penicillin, and 100 µg/mL streptomycin in the presence of 5% CO2 at 37 °C. Cells were re-seeded every three days at a ratio of 1:3 or 1:5.
The 40 µg/mL neutral red working solution was prepared, incubated overnight at the same temperature as the cells, and then centrifuged for 10 min at 600× g to remove any precipitated dye crystals. After the incubation with compounds tested at 37 °C in 5% CO2 for 48 h, cells were washed with PBS and then 100 µL of neutral red medium was added to each well of the plate. The plate was incubated for 2 h at the appropriate culture conditions, then the neutral red medium was removed and the cells were washed with PBS. After that 150 µL neutral red destain solution per well was added (50% ethanol, 49% deionized water, 1% glacial acetic acid (Sigma-Aldrich, Burlington, MA, USA). After the neutral red was extracted from the cells and formed a homogeneous solution, the result of the analysis was evaluated using a Tecan Spark multimode microplate reader via absorbance at 540 nm.

[3] = tested on: HIV-1 (subtype B) in MT-4 cells; assay: Antigen p24 assay in HIV-infected MT-4 cells; type: cell-based; settings: Human immunodeficiency virus 1, MT4; HIV-1 899A strain (subtype B), third day after infection
Procedure: The human MT-4 lymphoblastoid cells were cultured in RPMI 1640 medium supplemented with 10% fetal bovine serum (FBS) (HyClone, Logan, UT, USA), 2 mM L-glutamine, 50 U/mL penicillin, and 50 μg/mL streptomycin in a humidified atmosphere of 5% CO2 at 37 °C. The cells were re-seeded at a density of 3.0 × 10^5 cells/mL every three days. The HIV-1_899A strain (subtype B) was used from the collection of human immunodeficiency virus strains of the D.I. Ivanovsky Institute of Virology, N. F. Gamaleya National Research Center of Epidemiology and Microbiology, Ministry of Health, Moscow, Russia. The commercial drug Efavirenz (EFV), a non-nucleoside inhibitor of HIV reverse transcriptase, was used as a positive control. HIV-1 was added to the cells at 0.1 CCID50 (50% cell culture infectious dose). The cells, both infected and non-infected, were then incubated at 37 °C in a humidified atmosphere containing 5% CO2 for a 40 min period, after which the cells were washed twice in serum-free RPMI 1640 and plated into the wells of a 96-well plate. The tested compounds were then added to the cells at concentrations from 0.5 μM to 100 μM. The final ethanol concentration was 1% v/v. On the third day after infection, the culture fluid was collected for determining the amount of p24 antigen by enzyme immunoassay analysis using a commercial test system kit (Genscreen ULTRA HIV Ag-Ab, Bio-Rad, Hercules, CA, USA). Cell viability was measured by MTT assay.

Compound	inhibition of strand transfer, in words [1]	IC50 [1]	CC50 at 48 h (MTT cytotoxicity assay) [µM]	IC50 (Ku70–DNA complex) [µM]	CC50 at 48 h [2] [µM]	IC50 [3] [µM]
Oc1c(N/N=C/c2ccccc2)ccc2cccnc12 [Compound I, 7-(2-Benzylidenohydrazinyl)-8-hydroxyquinoline]	weak activity	160 ± 50 µM	50.5 ± 2.5	40 ± 10	14.5 ± 3.5	0.77 ± 0.03
O=[N+]([O-])c1ccc(/C=N/Nc2ccc3cccnc3c2O)cc1 [II, 7-(4-Nitrobenzylidenohydrazinyl)-8-hydroxyquinoline]	ineffective	> 200 µM	123 ± 13.2	50 ± 20	21 ± 4	1.2 ± 0.08
O=[N+]([O-])c1cccc(/C=N/Nc2ccc3cccnc3c2O)c1 [III, 7-(3-Nitrobenzylidenohydrazinyl)-8-hydroxyquinoline]	weak activity	190 ± 60 µM	38 ± 9.1	60 ± 20	7.1 ± 0.7	1.4 ± 0.33
COc1ccc(/C=N/Nc2ccc3cccnc3c2O)cc1 [IV, 7-(4-Methoxybenzylidenohydrazinyl)-8-hydroxyquinoline]	weak activity	150 ± 50 µM	47 ± 3.2	80 ± 30	9.1 ± 1.5	0.67 ± 0.05
Oc1c(N/N=C/c2ccc(Br)c(Br)c2)ccc2cccnc12 [V, 7-(3,4-Dibromobenzylidenohydrazinyl)-8-hydroxyquinoline]	ineffective	> 200 µM	120 ± 7.5	25 ± 8	8.6 ± 0.1	< 0.5
Oc1c(N/N=C/c2ccc(F)cc2)ccc2cccnc12 [VI, 7-(4-Fluorobenzylidenohydrazinyl)-8-hydroxyquinoline]		~40 µM and 40 µM	45.5 ± 3.6	> 250	6.7 ± 0.2	< 0.5
